Measured values published in patent publication US20030078212A1, “PHARMACEUTICAL COMPOSITIONS CONTAINING POLY(ADP-RIBOSE) GLYCOHYDROLASE INHIBITORS AND METHODS OF USING THE SAME” (priority 1998, published 2003).

Tests used:
[1] = system: ischemia and reperfusion of the heart; settings: rabbits, cited from earlier work
[2] = system: human fibroblast cells lines (W138 or BJ cells); test: Extending proliferative capacity and lifespan of cells; type: cell-based
Procedure: At the time of subdivision, the media is aspirated, and the cells rinsed with phosphate buffer saline (PBS) and then trypsinized. The cells are counted with a Coulter counter and plated at a density of 10^5 cells per cm^2 in 6-well tissue culture plates in DMEM/199 medium supplemented with 10% bovine calf serum and varying amounts (0.10 μM, and 1 mM: from a 100×stock solution in DMEM/M199 medium) of a PARG inhibitor. This process is repeated every 7 days until the cell appear to stop dividing. The untreated (control) cells reach senescence and stop dividing after about 40 days in culture. […] The cells treated with 1 mM 3-AB will still divide after 60 days in culture.

[3] = system: Colitis; settings: rats; colitis by trinitrobenzene sulfonic acid in 50% ethanol; cited from earlier work
[4] = system: cell viability, glucose metabolism, and DNA synthesis; settings: cited from earlier work
[5] = system: endotoxic shock; settings: cited from earlier work

Structure (SMILES): Oc1cccc2c(O)nccc12 [1,5-dihydroxyisoquinoline]
- reduction in infarct size ([1]; 1 mg/kg): 38-48%

Structure (SMILES): NC(=O)c1cccc(N)c1 [3-aminobenzamide]
- effect on lifespan of the cells ([2]; 10 μM): little or no effect
- effect on lifespan of the cells ([2]; 100 μM): lengthen the lifespan of the cells
- effect on lifespan and proliferative capacity of the cells ([2]; 1 mM): dramatically increases the lifespan and proliferative capacity of the cells
- time in culture at which cells still divide ([2]; 1 mM, untreated cells stop dividing after about 40 days): > 60 days
- reduction in infarct size in the heart ([1]; single injection 10 mg/kg, one minute before occlusion or one minute before reperfusion): 32-42%
- inflammatory response, morphology and energetic status of the distal colon [3]: reduced the inflammatory response and restored the morphology and the energetic status of the distal colon
- additional metabolic effects (side effects) [4]: affect cell viability, glucose metabolism, and DNA synthesis

Structure (SMILES): COc1cc(C(=O)OC[C@H]2OC(OC(=O)c3cc(OC)c(OC)c(OC)c3)[C@H](OC(=O)c3cc(OC)c(OC)c(OC)c3)[C@@H](OC(=O)c3cc(OC)c(OC)c(OC)c3)[C@@H]2OC(=O)c2cc(OC)c(OC)c(OC)c2)cc(OC)c1OC (stereo partly drawn) [Example 4, 1,2,3,4,6-Penta-O-(3,4,5-Trimethoxybenzoyl)-D-Glucopyranose]
- melting point: 85 to 90 °C

Structure (SMILES): NC(=O)c1ccccc1 [benzamide]
- additional metabolic effects (side effects) [4]: affect cell viability, glucose metabolism, and DNA synthesis

Structure (SMILES): NC(=O)c1cccnc1 [nicotinamide]
- delayed, NO-mediated vascular failure [5]: protects against delayed, NO-mediated vascular failure in endotoxic shock
